Measurements taken from patent publication US20130064812A1, “COMBINATION THERAPIES FOR HEMATOLOGIC MALIGNANCIES” (Gilead Calistoga LLC, priority 2011, published 2013).
Where “and” joins values, the source holds several entries; their conditions need not be identical. Equal entries are not always repeated. Entries after “also recorded” stand apart in the source; their conditions may differ.

How the values were obtained:
phospho-Akt(Ser473) = experiment: Constitutive Akt phosphorylation in leukemia and lymphoma cell lines (immunoblot); type: cell-based
Protocol: A large panel of leukemia and lymphoma cell lines was assessed for constitutive Akt phosphorylation. These cell lines represent B-lymphoma, T-lymphoma, ALL, Malignant histiocytosis, DLBCL and AML. […] Thereafter, cell were lysed, size-fractioned and immunoblotted with antibodies directed against phospho-Akt(Ser473).
The PI3K pathway is frequently deregulated in leukemia and lymphoma cell lines. […] In addition, PI3K pathway activation is dependent on p110δ.

[1] = test system: CD19+ cells from CLL patients; experiment: Surface CD40, CD86, CD20 on CD19+ CLL cells (flow cytometry); type: cell-based, human; settings: 0.5 μM lenalidomide and/or 10 μM compound, 48 hours
Protocol: Antibodies to CD20, CD40, CD80, CD86 or IgG1 (BD Biosciences, San Jose Calif.) were surface stained.
To extend these findings, inhibition of PI3K-δ prevented lenalidomide was investigated to see whether it induced up-regulation of other co-stimulatory molecules important to B-cell antigen presentation. […] Surface expression of CD40 or CD86 was evaluated by flow cytometry using a CD40- or CD86-PE antibodies and IgG1-PE isotype control.
Internalization of CD20 was evaluated by quantifying surface expression of CD20 by flow cytometry using a CD20-PE antibodies and IgG1-PE isotype control.

LB cells = experiment: MM cell growth with IGF-1 or IL-6 (MTT); type: cell-based, human; settings: 0.625 μM-[…], 48 h, with IL-6 or IGF-1
Protocol: LB cells ([…]) were cultured for 48 h with control media; with the compound of formula I, in the presence or absence of either IL-6 or IGF-1. […] Chemicon International) dye absorbance. Cells were pulsed with 10 μL of 5 mg/mL MTT to each well for the last 4 hours of 48-hour cultures, followed by 100 μL isopropanol containing 0.04 N HCl.

[2] = test system: T-ALL and B-ALL leukemic cell lines; experiment: ALL cell lines: AlamarBlue viability and Akt phosphorylation; type: cell-based; settings: for cellular viability in ALL cell lines: 48 hours
Protocol: Viability assays of cell lines were performed using the AlamarBlue assay (Invitrogen). Cells (1×10^6 per well) in a volume of 100 μL were placed in a 96-well flat-bottom plate and the compound of formula I (100 μL per well at 2× final concentration) or medium alone was added to the plates. All were performed in quadruplicate. Cells were incubated for fixed times (48 hours). After the incubation, 10 μL AlamarBlue® was added to each well. Cells were incubated for 4 hours and the optical density at 530-560 nm was obtained using a SpectraMax® M5 plate reader 2001. Cell viability was expressed as a percentage of absorption between treated cells/control sample.

CLL = experiment: Previous single-agent study in patients with CLL; type: in vivo, human; settings: single-agent therapy
[3] = human, in vivo
Protocol: This example provides data relating to the concentration of the compound of formula I in the blood of a healthy human subject on day 7. The concentration was monitored over a period of 12 hours, after oral administration of 50, 100, or 200 mg BID of the compound of formula I on day 7 of the study. FIG. 11 follows the plasma concentration of the drug over a period of 12 hours from administration.
In addition, single dose studies wherein 17-400 mg of the compound of formula I was administered in healthy volunteers was carried out.
Table 1, below, provides an overview of the subjects in the study, wherein either a singe dose (SD) or multiple dose (MD) of the compound of formula I is administered to a subject at varying amounts. The “n” values refer to the number of subjects in each group.

FL cell lines = experiment: PI3K signaling and apoptosis in follicular lymphoma cell lines; type: cell-based
caspase 3 and PARP = experiment: Cleavage of caspase 3 and PARP (immunoblot, Meso Scale plates); type: cell-based; settings: 5 or 10 μM, 24 hrs
Protocol: FIGS. […]
Thereafter, cells were lysed and sized-fractionated and immunoblotted with antibody directed against FLIP, FIG. 29. Additionally, whole cell lysates were added to MDS (Meso Scale Diagnostics) multi-spot 96-well 4 spot plates coated with Total caspase-3, cleaved caspase-3, cleaved PARP, and BSA. Proteins were detected with antibodies labeled with SULFO-TAG reagent and quantified.

CCRF-SB cells = experiment: Cell cycle FACS analysis (propidium iodide); type: cell-based
Protocol: Representative fluorescence-activated cell sorting (FACS) analysis of propidium iodide-stained CCRF-SB cells under normal growth conditions, and growth in the presence of the compound of formula I. The average percentage of cells in G0-G1, S, and G2-M phases is calculated in the table below the histographs.

[4] = test system: AKT (ser473), GSK3β (ser9); experiment: AKT and GSK3β phosphorylation in CD19+ CLL cells with lenalidomide (immunoblot); settings: 0.5 μM lenalidomide and/or 1 or 10 μM compound, 48 hours
Protocol: Immunoblots were performed.
AKT phosphorylation at ser473 was assessed by immunoblot.
GSK3β phosphorylation at ser9 was assessed by immunoblot. Results are shown from one of four experiments.
CD19+ cells from CLL patients (N=3) were transfected with siRNA targeted to PI3K-δ, PI3K-γ or a nonsense and then incubated with or without 0.5 μM lenalidomide for 48 hours. AKT phosphorylation at ser473 was assessed by immunoblot. Results are shown from one of three experiments.

PIP5Kβ = PIP5Kβ (Homo sapiens, UniProt O14986); experiment: InvitroGen Adapta kinase assay, PIP5Kβ; type: biochemical; settings: Other Phosphoinositide kinases; head prints no unit
Chain of PIP5Kβ (O14986 whole entry): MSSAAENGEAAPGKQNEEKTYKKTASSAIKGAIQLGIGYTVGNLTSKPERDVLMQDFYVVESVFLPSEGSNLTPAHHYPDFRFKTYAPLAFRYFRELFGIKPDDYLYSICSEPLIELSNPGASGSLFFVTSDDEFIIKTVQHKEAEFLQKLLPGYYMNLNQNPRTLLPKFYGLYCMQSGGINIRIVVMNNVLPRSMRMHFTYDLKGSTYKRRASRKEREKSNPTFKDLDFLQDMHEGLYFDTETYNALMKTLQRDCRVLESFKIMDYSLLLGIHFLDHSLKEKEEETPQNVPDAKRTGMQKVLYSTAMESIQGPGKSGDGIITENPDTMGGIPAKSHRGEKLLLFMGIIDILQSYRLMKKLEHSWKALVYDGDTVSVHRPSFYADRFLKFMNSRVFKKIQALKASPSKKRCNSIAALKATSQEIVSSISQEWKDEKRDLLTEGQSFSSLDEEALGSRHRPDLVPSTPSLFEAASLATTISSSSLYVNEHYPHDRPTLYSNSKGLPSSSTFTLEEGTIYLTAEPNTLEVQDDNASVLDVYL

HuVECs = experiment: In vitro angiogenesis assay (tube formation); type: cell-based, human; settings: 0, 1.0, or 10 μM, 8 h; p<0.05
Protocol: HUVEC and endothelial growth media were obtained from Lonza (Walkersville, Md., USA). […] After 8 h, tube formation was evaluated using Leika DM IL microscopy (Leica Microsystems, Wetzlar, Germany) and analyzed with IM50 software (Leica Microsystems Imaging Solutions, Cambridge, UK). HUVEC cell migration and rearrangement was visualized, and the number of branching points counted.
The effect of P110δ inhibition on angiogenesis was investigated.

[5] = test system: IGROV-1 and OVCAR-3 cell lines; experiment: Proliferation of ovarian cancer cell lines (AlamarBlue); type: cell-based; settings: IGROV-1, OVCAR-3, 48 hrs and 72 hrs
Protocol: IGROV-1 and OVCAR-3 cell lines were grown in the presence of serum plus the indicated concentrations of the compound of formula I. Proliferation was measured in triplicate wells by AlamarBlue assay (Invitrogen) 96-well plates.

mTOR = mTOR (Homo sapiens, UniProt P42345); experiment: InvitroGen Adapta kinase assay, mTOR; type: biochemical

CC[C@H](Nc1ncnc2[nH]cnc12)c1nc2cccc(F)c2c(=O)n1-c1ccccc1 [Compound I, 5-fluoro-3-phenyl-2-[1-(9H-purin-6-ylamino)-propyl]-3H-quinazolin-4-one]
cell lines in which constitutive AKT phosphorylation was inhibited (phospho-Akt(Ser473); 10 μM, 2 hrs, B-cell and T-cell lymphomas included): 11 out of 11 | constitutive Akt(Ser473) phosphorylation (phospho-Akt(Ser473); 2 hours treatment): inhibits Akt phosphorylation; also recorded: Reduction in Akt(Ser473) was achieved for all cell lines | cell lines in which constitutive AKT phosphorylation was inhibited (phospho-Akt(Ser473); cell lines with constitutive p-AKT): 13 of 13 and 13 out of 13 | internalization of CD20 ([1]; N=5, p=0.0057): prevented this effect | surface expression of CD40 and CD86 ([1]; N=25, p=0.0102 and <0.0001): prevent the up-regulation of CD40 and CD86 induced by lenalidomide | MM cell growth (LB cells): inhibits MM cell growth even in the presence of cell growth stimulatory cytokines | Akt phosphorylation in ALL cell lines [2]: reduction in Akt phosphorylation | cellular viability in ALL cell lines [2]: significant reduction in cell viability in all six cell lines | cellular viability in ALL cell lines ([2]; listed as compound I): substantial reduction in cellular viability | fraction of patients with CLL with lymphocytosis (CLL): ⅔ | lymphocyte redistribution (CLL): transient lymphocytosis in patients with CLL | concentration level versus PI3Kδ EC50 in basophil [3]: exceeds the PI3Kδ EC50 concentration in basophil for at least 12 hours | tolerability in normal healthy volunteers [3]: well tolerated at doses above commonly used therapeutic doses | cytotoxicity against p110δ-positive MM cells (MM cell lines): induced cytotoxicity against LB and INA-6 mM cells (p110δ-positive) in a dose- and time-dependent fashion | cytotoxicity in p110δ-negative cell lines (MM cell lines): minimal cytotoxicity | pAkt, Akt, pS6 and S6 in FL cell lines (FL cell lines): reduction in the production of pAkt, Akt, pS6 and S6 | cleavage of PARP and Caspase-3 in FL cell lines (FL cell lines; 24 hours, 0.1 μM and 0.5 μM): Cleavage of PARP and Caspase-3 is observed | cleavage of caspase 3 and PARP (caspase 3 and PARP): dose dependent response in the cleavage of caspase 3 and PARP | cell cycle (CCRF-SB cells): G0/G1 cell cycle arrest | AKT activation / phosphorylation (ser473) with lenalidomide [4]: resulted in prevention of PI3K activity | GSK3β phosphorylation (ser9) ([4]; N=4): preventable by co-treatment with the compound of formula I | IC50 (PIP5Kβ): > 1 µM | capillary-like tube formation (HuVECs): inhibited capillary-like tube formation in a dose-dependent fashion | proliferation of ovarian cancer cell lines [5]: cytotoxic to two ovarian cancer cell lines | proliferation of ovarian cancer cell lines ([5]; listed as compound of formula I): inhibits proliferation of ovarian cancer cell lines | IC50 (mTOR): > 1 µM
